{"source": "ChEMBL document CHEMBL4190187", "about": "“Discovery of pyrazolopyrimidine derivatives as novel inhibitors of ataxia telangiectasia and rad3 related protein (ATR)” (Bioorg Med Chem Lett, 2017)", "key": {"[1]": {"biological_target": "Protein kinase C epsilon type (Homo sapiens) (UniProt Q02156)", "test": "Inhibition of recombinant human PKCepsilon (2 to end residues) at 1 uM using ERMRPRKRQGSVRRRV as substrate after 40 mins in presence of [gamma-33P]ATP by scintillation counting method"}, "[2]": {"system": "Platelet-derived growth factor receptor alpha (Homo sapiens), P16234 [V561D]", "test": "Inhibition of recombinant human PDGFRalpha V561D mutant (550 to end residues) at 1 uM using GGMEDIYFEFMGGKKK as substrate after 40 mins in presence of [gamma-33P]ATP by scintillation counting method"}, "[3]": {"biological_target": "Dual specificity tyrosine-phosphorylation-regulated kinase 1B (Homo sapiens) (UniProt Q9Y463)", "test": "Inhibition of recombinant full-length human DYRK1B at 1 uM using RRRFRPASPLRGPPK as substrate after 40 mins in presence of [gamma-33P]ATP by scintillation counting method"}, "[4]": {"biological_target": "Serine/threonine-protein kinase B-raf (Homo sapiens) (UniProt P15056)", "test": "Inhibition of recombinant human B-raf (416 to end residues) at 1 uM using myelin basic protein as substrate after 40 mins in presence of [gamma-33P]ATP by scintillation counting method"}, "[5]": {"system": "Hepatocyte growth factor receptor (Homo sapiens), P08581 [D1246N]", "test": "Inhibition of recombinant human Met D1246N mutant (974 to end residues) at 1 uM using KKKGQEEEYVFIE as substrate after 40 mins in presence of [gamma-33P]ATP by scintillation counting method"}, "[6]": {"biological_target": "Serine/threonine-protein kinase tousled-like 2 (Homo sapiens) (UniProt Q86UE8)", "test": "Inhibition of recombinant human TLK2 (387 to end residues) at 1 uM using casein as substrate after 40 mins in presence of [gamma-33P]ATP by scintillation counting method"}, "[7]": {"biological_target": "Serine/threonine-protein kinase SIK2 (Homo sapiens) (UniProt Q9H0K1)", "sequence (Q9H0K1 whole entry, looked up, the tested form may be a part)": "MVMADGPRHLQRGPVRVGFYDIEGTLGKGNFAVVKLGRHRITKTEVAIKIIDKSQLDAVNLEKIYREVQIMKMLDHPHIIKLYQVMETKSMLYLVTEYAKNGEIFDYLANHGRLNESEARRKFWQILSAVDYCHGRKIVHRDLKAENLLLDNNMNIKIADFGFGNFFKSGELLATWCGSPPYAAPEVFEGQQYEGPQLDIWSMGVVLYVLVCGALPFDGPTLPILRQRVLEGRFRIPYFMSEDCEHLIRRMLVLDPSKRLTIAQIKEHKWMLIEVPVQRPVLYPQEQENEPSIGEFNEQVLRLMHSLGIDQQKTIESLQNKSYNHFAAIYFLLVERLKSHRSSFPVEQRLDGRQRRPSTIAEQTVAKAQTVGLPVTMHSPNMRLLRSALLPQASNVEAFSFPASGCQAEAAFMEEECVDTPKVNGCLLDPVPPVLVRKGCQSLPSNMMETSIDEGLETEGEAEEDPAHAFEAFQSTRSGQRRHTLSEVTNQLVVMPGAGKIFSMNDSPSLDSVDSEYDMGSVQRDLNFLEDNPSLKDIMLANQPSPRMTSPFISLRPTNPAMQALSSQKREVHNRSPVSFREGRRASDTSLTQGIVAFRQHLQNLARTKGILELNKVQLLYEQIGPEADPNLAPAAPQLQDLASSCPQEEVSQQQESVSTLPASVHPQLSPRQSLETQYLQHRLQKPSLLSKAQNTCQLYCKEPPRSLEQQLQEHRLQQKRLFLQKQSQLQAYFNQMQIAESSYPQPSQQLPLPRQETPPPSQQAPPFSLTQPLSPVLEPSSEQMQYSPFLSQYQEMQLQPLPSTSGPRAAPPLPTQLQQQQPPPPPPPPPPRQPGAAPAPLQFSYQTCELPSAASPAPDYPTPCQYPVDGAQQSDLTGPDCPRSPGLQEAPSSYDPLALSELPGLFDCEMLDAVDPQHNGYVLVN", "test": "Inhibition of recombinant human SIK2 (1 to 276 residues) at 1 uM using KKKVSRSGLYRSPSMPENLNRPR as substrate after 40 mins in presence of [gamma-33P]ATP by scintillation counting method"}, "[8]": {"biological_target": "Mitogen-activated protein kinase kinase kinase 9 (Homo sapiens) (UniProt P80192)", "test": "Inhibition of recombinant human MLK1 (134 to 414 residues) at 1 uM using casein as substrate after 40 mins in presence of [gamma-33P]ATP by scintillation counting method"}, "[9]": {"biological_target": "ALK tyrosine kinase receptor (Homo sapiens) (UniProt Q9UM73)", "test": "Inhibition of recombinant human ALK (1058 to end residues) at 1 uM using KKKSPGEYVNIEFG as substrate after 40 mins in presence of [gamma-33P]ATP by scintillation counting method"}, "[10]": {"biological_target": "Inhibitor of nuclear factor kappa-B kinase subunit epsilon (Homo sapiens) (UniProt Q14164)", "test": "Inhibition of recombinant full-length human IKKepsilon at 1 uM using casein as substrate after 40 mins in presence of [gamma-33P]ATP by scintillation counting method"}, "[11]": {"biological_target": "RAF proto-oncogene serine/threonine-protein kinase (Homo sapiens) (UniProt P04049)", "test": "Inhibition of recombinant human c-RAF (306 to end residues) at 1 uM using inactive MEK1 as substrate after 40 mins in presence of [gamma-33P]ATP by scintillation counting method"}, "[12]": {"biological_target": "Hepatocyte growth factor receptor (Homo sapiens) (UniProt P08581)", "sequence (P08581 whole entry)": "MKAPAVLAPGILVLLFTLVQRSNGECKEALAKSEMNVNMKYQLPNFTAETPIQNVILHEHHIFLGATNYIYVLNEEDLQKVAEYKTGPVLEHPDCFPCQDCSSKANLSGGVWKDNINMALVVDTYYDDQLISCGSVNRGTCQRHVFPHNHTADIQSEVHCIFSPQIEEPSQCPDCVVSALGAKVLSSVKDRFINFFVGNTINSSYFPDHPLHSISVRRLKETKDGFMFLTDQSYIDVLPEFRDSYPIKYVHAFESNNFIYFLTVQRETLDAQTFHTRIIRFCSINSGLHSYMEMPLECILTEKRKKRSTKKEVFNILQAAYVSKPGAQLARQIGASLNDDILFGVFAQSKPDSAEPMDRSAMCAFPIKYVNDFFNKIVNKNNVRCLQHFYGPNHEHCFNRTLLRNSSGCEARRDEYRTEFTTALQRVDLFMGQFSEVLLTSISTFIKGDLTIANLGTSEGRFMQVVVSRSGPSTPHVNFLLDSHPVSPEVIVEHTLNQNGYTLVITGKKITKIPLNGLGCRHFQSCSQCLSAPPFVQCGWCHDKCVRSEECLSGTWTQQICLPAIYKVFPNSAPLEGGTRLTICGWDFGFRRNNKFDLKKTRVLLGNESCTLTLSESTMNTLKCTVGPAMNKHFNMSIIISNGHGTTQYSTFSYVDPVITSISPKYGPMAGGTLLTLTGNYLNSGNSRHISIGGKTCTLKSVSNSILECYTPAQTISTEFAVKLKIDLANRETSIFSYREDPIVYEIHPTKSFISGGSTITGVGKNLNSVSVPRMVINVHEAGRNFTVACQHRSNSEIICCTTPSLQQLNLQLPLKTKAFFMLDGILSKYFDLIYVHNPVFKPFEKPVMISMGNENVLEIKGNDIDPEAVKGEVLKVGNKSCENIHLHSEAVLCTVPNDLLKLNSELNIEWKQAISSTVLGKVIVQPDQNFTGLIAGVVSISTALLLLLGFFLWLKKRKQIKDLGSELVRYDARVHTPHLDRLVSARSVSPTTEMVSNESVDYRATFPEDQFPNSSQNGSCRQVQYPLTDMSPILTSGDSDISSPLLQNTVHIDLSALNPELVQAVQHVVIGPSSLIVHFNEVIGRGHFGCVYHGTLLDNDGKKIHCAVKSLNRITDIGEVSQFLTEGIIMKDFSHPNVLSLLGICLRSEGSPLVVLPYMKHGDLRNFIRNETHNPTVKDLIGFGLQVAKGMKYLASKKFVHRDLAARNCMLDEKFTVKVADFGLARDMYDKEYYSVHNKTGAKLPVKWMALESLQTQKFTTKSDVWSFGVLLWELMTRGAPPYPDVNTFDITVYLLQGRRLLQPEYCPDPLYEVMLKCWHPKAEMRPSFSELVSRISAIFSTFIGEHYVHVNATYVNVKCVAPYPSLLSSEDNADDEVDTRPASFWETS", "test": "Inhibition of recombinant human Met (974 to end residues) at 1 uM using KKKGQEEEYVFIE as substrate after 40 mins in presence of [gamma-33P]ATP by scintillation counting method"}, "[13]": {"biological_target": "Phosphatidylinositol 4-phosphate 3-kinase C2 domain-containing subunit alpha (Homo sapiens) (UniProt O00443)", "test": "Inhibition of recombinant human PI3KC2alpha (299 to end residues) at 1 uM phosphatidylinositol/phosphatidylserine as substrate after 40 mins in presence of [gamma-33P]ATP by scintillation counting method"}, "[14]": {"biological_target": "G protein-coupled receptor kinase 6 (Homo sapiens) (UniProt P43250)", "sequence (P43250 whole entry, looked up)": "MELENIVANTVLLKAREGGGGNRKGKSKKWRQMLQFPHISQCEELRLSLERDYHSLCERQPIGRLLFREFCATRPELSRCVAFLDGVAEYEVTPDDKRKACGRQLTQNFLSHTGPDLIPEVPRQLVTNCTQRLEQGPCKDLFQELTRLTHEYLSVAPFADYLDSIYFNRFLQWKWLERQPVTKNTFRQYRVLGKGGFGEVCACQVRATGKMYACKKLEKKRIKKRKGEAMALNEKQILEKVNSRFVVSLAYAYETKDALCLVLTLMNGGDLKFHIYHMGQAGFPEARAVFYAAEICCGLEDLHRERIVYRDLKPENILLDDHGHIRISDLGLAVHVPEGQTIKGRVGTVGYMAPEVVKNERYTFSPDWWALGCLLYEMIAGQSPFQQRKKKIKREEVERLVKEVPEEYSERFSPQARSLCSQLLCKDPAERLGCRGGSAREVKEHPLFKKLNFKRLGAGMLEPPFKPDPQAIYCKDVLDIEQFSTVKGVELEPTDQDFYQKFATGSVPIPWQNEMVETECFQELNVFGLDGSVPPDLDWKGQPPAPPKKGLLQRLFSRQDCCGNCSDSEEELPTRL", "test": "Inhibition of recombinant full-length human GRK6 at 1 uM using casein as substrate after 40 mins in presence of [gamma-33P]ATP by scintillation counting method"}, "[15]": {"system": "Hepatocyte growth factor receptor (Homo sapiens), P08581 [Y1248C]", "test": "Inhibition of recombinant human Met Y1248C mutant (974 to end residues) at 1 uM using KKKGQEEEYVFIE as substrate after 40 mins in presence of [gamma-33P]ATP by scintillation counting method"}, "[16]": {"biological_target": "Vascular endothelial growth factor receptor 3 (Homo sapiens) (UniProt P35916)", "test": "Inhibition of recombinant human Flt4 (800 to end residues) at 1 uM using GGEEEEYFELVKKKK as substrate after 40 mins in presence of [gamma-33P]ATP by scintillation counting method"}, "[17]": {"biological_target": "Calcium/calmodulin-dependent protein kinase type 1D (Homo sapiens) (UniProt Q8IU85)", "sequence (Q8IU85 whole entry, looked up)": "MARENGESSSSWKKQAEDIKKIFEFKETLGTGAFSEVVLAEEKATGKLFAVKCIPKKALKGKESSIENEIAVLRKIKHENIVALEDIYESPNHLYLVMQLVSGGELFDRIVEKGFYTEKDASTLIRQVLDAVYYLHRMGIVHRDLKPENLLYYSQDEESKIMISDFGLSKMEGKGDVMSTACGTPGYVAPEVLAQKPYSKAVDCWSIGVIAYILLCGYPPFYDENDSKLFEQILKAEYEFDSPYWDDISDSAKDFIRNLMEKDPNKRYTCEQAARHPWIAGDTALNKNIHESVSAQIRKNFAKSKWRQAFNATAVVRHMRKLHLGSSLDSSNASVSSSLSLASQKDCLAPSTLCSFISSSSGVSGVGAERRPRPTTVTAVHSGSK", "test": "Inhibition of recombinant full-length human CAMK1delta at 1 uM using […] after 40 mins in presence of [gamma-33P]ATP by scintillation counting method"}, "[18]": {"biological_target": "Protein kinase C gamma type (Homo sapiens) (UniProt P05129)", "test": "Inhibition of recombinant full-length human PKCgamma at 1 uM using histone H1 as substrate after 40 mins in presence of [gamma-33P]ATP by scintillation counting method"}, "[19]": {"biological_target": "SRSF protein kinase 2 (Homo sapiens) (UniProt P78362)", "test": "Inhibition of recombinant human SRPK2 (46 to end residues) at 1 uM using RSRSRSRSRSRSRSR as substrate after 40 mins in presence of [gamma-33P]ATP by scintillation counting method"}, "[20]": {"system": "Angiopoietin-1 receptor (Homo sapiens), Q02763 [R849W]", "test": "Inhibition of recombinant activated human Tie2 R849W mutant (771 to end residues) at 1 uM using EFPIYDFLPAKKK as substrate after 40 mins in presence of [gamma-33P]ATP by scintillation counting method"}, "[21]": {"biological_target": "Macrophage colony-stimulating factor 1 receptor (Homo sapiens) (UniProt P07333)", "sequence (P07333 whole entry)": "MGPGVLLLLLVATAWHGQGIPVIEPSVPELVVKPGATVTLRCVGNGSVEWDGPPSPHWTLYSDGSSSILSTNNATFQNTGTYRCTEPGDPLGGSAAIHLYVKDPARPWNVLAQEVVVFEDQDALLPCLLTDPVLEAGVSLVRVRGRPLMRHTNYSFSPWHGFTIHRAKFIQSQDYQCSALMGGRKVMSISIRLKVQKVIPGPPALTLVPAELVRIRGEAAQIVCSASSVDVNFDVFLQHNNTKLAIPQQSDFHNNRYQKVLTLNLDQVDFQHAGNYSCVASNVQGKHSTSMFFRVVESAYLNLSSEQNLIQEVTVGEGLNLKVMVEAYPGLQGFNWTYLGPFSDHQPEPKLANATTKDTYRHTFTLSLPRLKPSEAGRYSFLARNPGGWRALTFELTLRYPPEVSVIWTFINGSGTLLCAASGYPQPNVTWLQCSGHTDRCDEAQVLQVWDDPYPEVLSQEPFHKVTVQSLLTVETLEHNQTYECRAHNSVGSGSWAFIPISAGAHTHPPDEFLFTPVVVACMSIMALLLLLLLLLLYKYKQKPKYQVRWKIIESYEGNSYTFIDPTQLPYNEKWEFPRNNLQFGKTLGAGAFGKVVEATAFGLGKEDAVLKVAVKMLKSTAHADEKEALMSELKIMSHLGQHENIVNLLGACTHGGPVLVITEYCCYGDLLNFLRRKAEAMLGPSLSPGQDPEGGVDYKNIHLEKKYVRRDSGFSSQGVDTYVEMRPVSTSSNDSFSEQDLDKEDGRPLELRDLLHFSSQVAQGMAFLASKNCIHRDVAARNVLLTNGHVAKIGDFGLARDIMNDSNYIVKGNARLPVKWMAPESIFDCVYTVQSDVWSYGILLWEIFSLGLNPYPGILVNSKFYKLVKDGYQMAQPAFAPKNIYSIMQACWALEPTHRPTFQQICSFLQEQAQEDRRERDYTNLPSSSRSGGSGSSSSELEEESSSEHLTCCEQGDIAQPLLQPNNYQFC", "test": "Inhibition of recombinant human Fms (538 to end residues) at 1 uM using KKKSPGEYVNIEFG as substrate after 40 mins in presence of [gamma-33P]ATP by scintillation counting method"}, "[22]": {"biological_target": "Activin receptor type-1 (Homo sapiens) (UniProt Q04771)", "test": "Inhibition of recombinant human ALK2 (147 to end residues) at 1 uM using casein as substrate after 40 mins in presence of [gamma-33P]ATP by scintillation counting method"}, "[23]": {"biological_target": "Mitogen-activated protein kinase 10 (Homo sapiens) (UniProt P53779)", "sequence (P53779 whole entry)": "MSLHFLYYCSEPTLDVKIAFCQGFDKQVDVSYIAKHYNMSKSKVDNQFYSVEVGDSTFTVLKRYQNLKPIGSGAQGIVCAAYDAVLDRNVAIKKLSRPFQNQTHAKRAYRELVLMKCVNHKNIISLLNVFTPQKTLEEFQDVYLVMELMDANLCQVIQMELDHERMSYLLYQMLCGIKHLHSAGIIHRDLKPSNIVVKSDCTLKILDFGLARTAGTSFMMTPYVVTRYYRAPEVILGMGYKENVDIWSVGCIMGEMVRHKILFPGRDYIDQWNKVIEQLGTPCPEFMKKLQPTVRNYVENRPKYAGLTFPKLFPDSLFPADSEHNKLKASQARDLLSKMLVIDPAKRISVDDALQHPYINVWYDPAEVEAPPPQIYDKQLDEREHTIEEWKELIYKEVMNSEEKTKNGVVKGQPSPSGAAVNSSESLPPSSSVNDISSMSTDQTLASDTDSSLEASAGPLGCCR", "test": "Inhibition of recombinant full-length human JNK3 at 1 uM using peptide as substrate after 40 mins in presence of [gamma-33P]ATP by scintillation counting method"}, "[24]": {"biological_target": "Ephrin type-B receptor 4 (Homo sapiens) (UniProt P54760)", "test": "Inhibition of recombinant human EPHB4 (561 to end residues) at 1 uM using poly(Glu,Tyr) 4:1 as substrate after 40 mins in presence of [gamma-33P]ATP by scintillation counting method"}}, "data": [{"smiles": "CS(=O)(=O)c1ccc(-n2nc(-c3cnc4[nH]ccc4c3)c3c(N)ncnc32)cc1", "values": [{"measurement": "inhibition", "setting": "[1]", "value": 2, "unit": "%"}, {"measurement": "inhibition", "setting": "[2]", "value": 66, "unit": "%"}, {"measurement": "inhibition", "setting": "[3]", "value": -4, "unit": "%"}, {"measurement": "inhibition", "setting": "[4]", "value": 89, "unit": "%"}, {"measurement": "inhibition", "setting": "[5]", "value": 3, "unit": "%"}, {"measurement": "inhibition", "setting": "[6]", "value": 0, "unit": "%"}, {"measurement": "inhibition", "setting": "[7]", "value": 21, "unit": "%"}, {"measurement": "inhibition", "setting": "[8]", "value": 13, "unit": "%"}, {"measurement": "inhibition", "setting": "[9]", "value": -4, "unit": "%"}, {"measurement": "inhibition", "setting": "[10]", "value": 3, "unit": "%"}, {"measurement": "inhibition", "setting": "[11]", "value": -1, "unit": "%"}, {"measurement": "inhibition", "setting": "[12]", "value": -4, "unit": "%"}, {"measurement": "inhibition", "setting": "[13]", "value": 23, "unit": "%"}, {"measurement": "inhibition", "setting": "[14]", "value": -3, "unit": "%"}, {"measurement": "inhibition", "setting": "[15]", "value": 3, "unit": "%"}, {"measurement": "inhibition", "setting": "[16]", "value": 91, "unit": "%"}, {"measurement": "inhibition", "setting": "[17]", "value": -8, "unit": "%"}, {"measurement": "inhibition", "setting": "[18]", "value": 3, "unit": "%"}, {"measurement": "inhibition", "setting": "[19]", "value": 0, "unit": "%"}, {"measurement": "inhibition", "setting": "[20]", "value": 1, "unit": "%"}, {"measurement": "inhibition", "setting": "[21]", "value": 76, "unit": "%"}, {"measurement": "inhibition", "setting": "[22]", "value": 0, "unit": "%"}, {"measurement": "inhibition", "setting": "[23]", "value": 8, "unit": "%"}, {"measurement": "inhibition", "setting": "[24]", "value": 27, "unit": "%"}]}]}
